According to ChEMBL document CHEMBL3217497, “Design, synthesis and antiproliferative activity of indole analogues of indanocine” (2013):

Columns and labels:
Type in all cases: functional
CAKI-1 = test: Cytotoxicity against human CAKI-1 cells assessed as growth inhibition
MCF7 = test: Cytotoxicity against human MCF7 cells assessed as growth inhibition
HT-29 = test: Cytotoxicity against human HT-29 cells assessed as growth inhibition
MDA-MB-231 = test: Cytotoxicity against human MDA-MB-231 cells assessed as growth inhibition
[1] = Cytotoxicity against human OVCAR8 cells assessed as growth inhibition; conditions: OVCAR-8
TK-10 = test: Cytotoxicity against human TK10 cells assessed as growth inhibition
SNB-75 = test: Cytotoxicity against human SNB75 cells assessed as growth inhibition
[2] = Cytotoxicity against human UACC62 cells assessed as growth inhibition; conditions: UACC-62
[3] = Cytotoxicity against human OVCAR5 cells assessed as growth inhibition; conditions: OVCAR-5
NCI-H322M = test: Cytotoxicity against human NCI-H322M cells assessed as growth inhibition
SK-MEL-2 = test: Cytotoxicity against human SK-MEL-2 cells assessed as growth inhibition
HOP-92 = test: Cytotoxicity against human HOP92 cells assessed as growth inhibition
SK-OV-3 = test: Cytotoxicity against human SKOV3 cells assessed as growth inhibition
MDA-MB-435 = test: Cytotoxicity against human MDA-MB-435 cells assessed as growth inhibition
NCI-H460 = test: Cytotoxicity against human NCI-H460 cells assessed as growth inhibition
RXF 393 = test: Cytotoxicity against human RXF393 cells assessed as growth inhibition
MOLT-4 = test: Cytotoxicity against human MOLT4 cells assessed as growth inhibition
SN12C = test: Cytotoxicity against human SN12C cells assessed as growth inhibition
[4] = Cytotoxicity against human EKVX cells assessed as growth inhibition
SNB-19 = test: Cytotoxicity against human SNB19 cells assessed as growth inhibition
786-0 = test: Cytotoxicity against human 786-0 cells assessed as growth inhibition
NCI-H226 = test: Cytotoxicity against human NCI-H226 cells assessed as growth inhibition
A498 = test: Cytotoxicity against human A498 cells assessed as growth inhibition
SW-620 = test: Cytotoxicity against human SW620 cells assessed as growth inhibition
Malme-3M = test: Cytotoxicity against human MALME-3M cells assessed as growth inhibition
HOP-62 = test: Cytotoxicity against human HOP62 cells assessed as growth inhibition
K562 = test: Cytotoxicity against human K562 cells assessed as growth inhibition
SF-268 = test: Cytotoxicity against human SF268 cells assessed as growth inhibition
MDA-MB-468 = test: Cytotoxicity against human MDA-MB-468 cells assessed as growth inhibition
HL-60(TB) = test: Cytotoxicity against human HL-60(TB) cells assessed as growth inhibition
A549 = test: Cytotoxicity against human A549 cells assessed as growth inhibition
[5] = Cytotoxicity against human OVCAR4 cells assessed as growth inhibition; conditions: OVCAR-4
[6] = Cytotoxicity against human UACC257 cells assessed as growth inhibition; conditions: UACC-257
RPMI-8226 = test: Cytotoxicity against human RPMI8226 cells assessed as growth inhibition
SK-MEL-5 = test: Cytotoxicity against human SK-MEL-5 cells assessed as growth inhibition
IGROV-1 = test: Cytotoxicity against human IGROV1 cells assessed as growth inhibition
[7] = Cytotoxicity against human UO31 cells assessed as growth inhibition; conditions: UO-31
NCI-H23 = test: Cytotoxicity against human NCI-H23 cells assessed as growth inhibition
[8] = Cytotoxicity against human HCT15 cells assessed as growth inhibition; conditions: HCT-15
[9] = Cytotoxicity against human OVCAR3 cells assessed as growth inhibition; conditions: OVCAR-3
SF-295 = test: Cytotoxicity against human SF295 cells assessed as growth inhibition
SF-539 = test: Cytotoxicity against human SF539 cells assessed as growth inhibition
HCC 2998 = test: Cytotoxicity against human HCC2998 cells assessed as growth inhibition
PC-3 = test: Cytotoxicity against human PC3 cells assessed as growth inhibition
HCT-116 = test: Cytotoxicity against human HCT116 cells assessed as growth inhibition
NCI-H522 = test: Cytotoxicity against human NCI-H522 cells assessed as growth inhibition
CCRF-CEM = test: Cytotoxicity against human CCRF-CEM cells assessed as growth inhibition
LOX IMVI = test: Cytotoxicity against human LOXIMVI cells assessed as growth inhibition
SR = test: Cytotoxicity against human SR cells assessed as growth inhibition
[10] = Cytotoxicity against human Hs 578T cells assessed as growth inhibition
[11] = Cytotoxicity against human NCI-ADR-RES cells assessed as growth inhibition
T47D = test: Cytotoxicity against human T47D cells assessed as growth inhibition
COLO 205 = test: Cytotoxicity against human COLO205 cells assessed as growth inhibition
M14 = test: Cytotoxicity against human M14 cells assessed as growth inhibition
DU-145 = test: Cytotoxicity against human DU145 cells assessed as growth inhibition
U-251 = test: Cytotoxicity against human U251 cells assessed as growth inhibition
KM12 = test: Cytotoxicity against human KM12 cells assessed as growth inhibition
SK-MEL-28 = test: Cytotoxicity against human SK-MEL-28 cells assessed as growth inhibition
ACHN = test: Cytotoxicity against human ACHN cells assessed as growth inhibition
BT-549 = test: Cytotoxicity against human BT549 cells assessed as growth inhibition

Cc1cc(/C=C2\Cc3c([nH]c4ccccc34)C2=O)cc(C)c1O
GI50 (CAKI-1): 1400 nM
GI50 (MCF7): 700 nM
GI50 (HT-29): 15800 nM
GI50 (MDA-MB-231): 3190 nM
GI50 [1]: 990 nM
GI50 (TK-10): 6270 nM
GI50 (SNB-75): 290 nM
GI50 [2]: 4570 nM
GI50 [3]: 11100 nM
GI50 (NCI-H322M): 10400 nM
GI50 (SK-MEL-2): 400 nM
GI50 (HOP-92): 7470 nM
GI50 (SK-OV-3): 730 nM
GI50 (MDA-MB-435): 160 nM
GI50 (NCI-H460): 420 nM
GI50 (RXF 393): 1430 nM
GI50 (MOLT-4): 6010 nM
GI50 (SN12C): 620 nM
GI50 [4]: 2590 nM
GI50 (SNB-19): 710 nM
GI50 (786-0): 5960 nM
GI50 (NCI-H226): 9600 nM
GI50 (A498): 4860 nM
GI50 (SW-620): 410 nM
GI50 (Malme-3M): 310 nM
GI50 (HOP-62): 650 nM
GI50 (K562): 330 nM
GI50 (SF-268): 860 nM
GI50 (MDA-MB-468): 2430 nM
GI50 (HL-60(TB)): 340 nM
GI50 (A549): 1580 nM
GI50 [5]: 10200 nM
GI50 [6]: 26100 nM
GI50 (RPMI-8226): 670 nM
GI50 (SK-MEL-5): 390 nM
GI50 (IGROV-1): 3540 nM
GI50 [7]: 320 nM
GI50 (NCI-H23): 1790 nM
GI50 [8]: 560 nM
GI50 [9]: 510 nM
GI50 (SF-295): 2780 nM
GI50 (SF-539): 550 nM
GI50 (HCC 2998): 7490 nM
GI50 (PC-3): 3570 nM
GI50 (HCT-116): 500 nM
GI50 (NCI-H522): 90 nM
GI50 (CCRF-CEM): 2180 nM
GI50 (LOX IMVI): 690 nM
GI50 (SR): 390 nM
GI50 [10]: 550 nM
GI50 [11]: 350 nM
GI50 (T47D): 12600 nM
GI50 (COLO 205): 19500 nM
GI50 (M14): 410 nM
GI50 (DU-145): 2050 nM
GI50 (U-251): 1120 nM
GI50 (KM12): 460 nM
GI50 (SK-MEL-28): 730 nM

Cc1cc(/C=C2\CCc3c(n(C)c4ccccc34)C2=O)cc(C)c1O
GI50 (CAKI-1): 840 nM
GI50 (MCF7): 370 nM
GI50 (HT-29): 4180 nM
GI50 (ACHN): 830 nM
GI50 (MDA-MB-231): 1060 nM
GI50 [1]: 920 nM
GI50 (TK-10): 1080 nM
GI50 (SNB-75): 410 nM
GI50 [2]: 410 nM
GI50 [3]: 5100 nM
GI50 (NCI-H322M): 2730 nM
GI50 (SK-MEL-2): 330 nM
GI50 (HOP-92): 6560 nM
GI50 (SK-OV-3): 1520 nM
GI50 (MDA-MB-435): 160 nM
GI50 (NCI-H460): 390 nM
GI50 (RXF 393): 1080 nM
GI50 (MOLT-4): 800 nM
GI50 (SN12C): 720 nM
GI50 [4]: 4840 nM
GI50 (SNB-19): 630 nM
GI50 (786-0): 3250 nM
GI50 (NCI-H226): 4380 nM
GI50 (A498): 3390 nM
GI50 (SW-620): 430 nM
GI50 (Malme-3M): 450 nM
GI50 (HOP-62): 720 nM
GI50 (K562): 330 nM
GI50 (BT-549): 2840 nM
GI50 (SF-268): 720 nM
GI50 (MDA-MB-468): 310 nM
GI50 (HL-60(TB)): 340 nM
GI50 (A549): 740 nM
GI50 [5]: 3870 nM
GI50 [6]: 5830 nM
GI50 (RPMI-8226): 760 nM
GI50 (SK-MEL-5): 410 nM
GI50 (IGROV-1): 1590 nM
GI50 [7]: 730 nM
GI50 (NCI-H23): 2530 nM
GI50 [8]: 510 nM
GI50 [9]: 350 nM
GI50 (SF-295): 1480 nM
GI50 (SF-539): 700 nM
GI50 (HCC 2998): 3610 nM
GI50 (PC-3): 2490 nM
GI50 (HCT-116): 390 nM
GI50 (NCI-H522): 140 nM
GI50 (CCRF-CEM): 740 nM
GI50 (LOX IMVI): 700 nM
GI50 (SR): 340 nM
GI50 [10]: 730 nM
GI50 [11]: 340 nM
GI50 (T47D): 2060 nM
GI50 (COLO 205): 22900 nM
GI50 (M14): 390 nM
GI50 (DU-145): 1850 nM
GI50 (U-251): 540 nM
GI50 (KM12): 450 nM
GI50 (SK-MEL-28): 640 nM
